# Source: ChEMBL document CHEMBL6127010, “NMR structures of small molecules bound to a model of a CUG RNA repeat expansion” (Bioorg Med Chem Lett, 2024)
# pIC50: −log10 of the molar value.
# System: r(CUG) repeat/Muscleblind-like protein 1
# Assay: Inhibition of 5'-biotinylated r(CUG) repeat (unknown origin) to His6-tagged MBNL1 (unknown origin) complex formation preincubated for 5 mins followed by compound addition for 15 mins prior to streptavidin-XL664 and anti-His6-Tb antibody addition for 1 hr by TR-FRET method
# Format: protein assay
row,Compound,pIC50
1,N=C(N)Nc1ccc(OC(=O)c2ccc(NC(=N)N)cc2)cc1,5.10
2,NCCN1CCN=C1c1ccc(C(=O)Nc2ccc(C3=NCCN3)cc2)cc1,4.72
3,COc1cccc(Nc2cc(C)nc3ccc(C(=N)N)cc23)c1,4.00
